± gives the expanded uncertainty stated by the source.
Experiment: xn = mol fraction of the nth substance listed
Conditions: Liquid, Vibrating tube method

CCCCCCCC [octane] + CCCO
mass density [kg/m3]
Conditions	343.15 K	353.15 K
100 kPa, x2 = 0.1631	665.21 ± 4.3	654.7 ± 4.2
100 kPa, x2 = 0.2111	667.28 ± 4.3	656.5 ± 4.2
100 kPa, x2 = 0.3158	672.81 ± 4.3	661.43 ± 4.2
100 kPa, x2 = 0.4411	681.54 ± 4.4	669.56 ± 4.3
100 kPa, x2 = 0.7301	709.96 ± 4.5	697.88 ± 4.5
100 kPa, x2 = 0.8823	734.38 ± 4.7	723.05 ± 4.6
1000 kPa, x2 = 0.3158	–	663.09 ± 4.2
1000 kPa, x2 = 0.8823	735.58 ± 4.7	–
1010 kPa, x2 = 0.1631	–	656.23 ± 4.2
1010 kPa, x2 = 0.2111	668.8 ± 4.3	658.1 ± 4.2
1010 kPa, x2 = 0.4411	682.72 ± 4.4	671.12 ± 4.3
1010 kPa, x2 = 0.7301	711.47 ± 4.6	–
1010 kPa, x2 = 0.8823	–	724.42 ± 4.6
1020 kPa, x2 = 0.1631	666.65 ± 4.3	–
1020 kPa, x2 = 0.3158	674.29 ± 4.3	–
1020 kPa, x2 = 0.7301	–	699.6 ± 4.5
2000 kPa, x2 = 0.1631	667.79 ± 4.3	–
2000 kPa, x2 = 0.4411	–	672.33 ± 4.3
2010 kPa, x2 = 0.2111	669.99 ± 4.3	659.4 ± 4.2
2010 kPa, x2 = 0.3158	–	664.39 ± 4.3
2010 kPa, x2 = 0.4411	683.85 ± 4.4	–
2010 kPa, x2 = 0.8823	736.66 ± 4.7	–
2020 kPa, x2 = 0.1631	–	657.52 ± 4.2
2020 kPa, x2 = 0.3158	675.48 ± 4.3	–
2020 kPa, x2 = 0.7301	712.6 ± 4.6	700.81 ± 4.5
2020 kPa, x2 = 0.8823	–	725.57 ± 4.7
3000 kPa, x2 = 0.1631	–	658.76 ± 4.2
3000 kPa, x2 = 0.2111	671.1 ± 4.3	–
3000 kPa, x2 = 0.3158	676.61 ± 4.3	–
3000 kPa, x2 = 0.4411	685.01 ± 4.4	–
3000 kPa, x2 = 0.7301	–	702.03 ± 4.5
3010 kPa, x2 = 0.3158	–	665.6 ± 4.3
3010 kPa, x2 = 0.4411	–	673.58 ± 4.3
3010 kPa, x2 = 0.7301	713.72 ± 4.6	–
3010 kPa, x2 = 0.8823	–	726.72 ± 4.7
3020 kPa, x2 = 0.1631	668.96 ± 4.3	–
3020 kPa, x2 = 0.2111	–	660.63 ± 4.2
3020 kPa, x2 = 0.8823	737.74 ± 4.7	–
4000 kPa, x2 = 0.3158	677.77 ± 4.3	–
4000 kPa, x2 = 0.8823	738.79 ± 4.7	727.86 ± 4.7
4010 kPa, x2 = 0.2111	–	661.88 ± 4.2
4010 kPa, x2 = 0.3158	–	666.84 ± 4.3
4010 kPa, x2 = 0.4411	686.15 ± 4.4	674.84 ± 4.3
4010 kPa, x2 = 0.7301	714.83 ± 4.6	703.25 ± 4.5
4020 kPa, x2 = 0.1631	670.09 ± 4.3	659.99 ± 4.2
4020 kPa, x2 = 0.2111	672.25 ± 4.3	–
5000 kPa, x2 = 0.2111	–	663.08 ± 4.2
5000 kPa, x2 = 0.4411	–	676.07 ± 4.3
5000 kPa, x2 = 0.7301	715.96 ± 4.6	–
5010 kPa, x2 = 0.1631	671.22 ± 4.3	661.2 ± 4.2
5010 kPa, x2 = 0.3158	–	668.06 ± 4.3
5010 kPa, x2 = 0.4411	687.28 ± 4.4	–
5010 kPa, x2 = 0.7301	–	704.44 ± 4.5
5010 kPa, x2 = 0.8823	739.88 ± 4.7	–
5020 kPa, x2 = 0.2111	673.37 ± 4.3	–
5020 kPa, x2 = 0.3158	678.9 ± 4.3	–
5020 kPa, x2 = 0.8823	–	729.03 ± 4.7
6000 kPa, x2 = 0.4411	–	677.27 ± 4.3
6000 kPa, x2 = 0.7301	–	705.64 ± 4.5
6010 kPa, x2 = 0.1631	672.33 ± 4.3	–
6010 kPa, x2 = 0.3158	–	669.31 ± 4.3
6010 kPa, x2 = 0.4411	688.39 ± 4.4	–
6010 kPa, x2 = 0.8823	740.91 ± 4.8	–
6020 kPa, x2 = 0.1631	–	662.41 ± 4.2
6020 kPa, x2 = 0.2111	674.49 ± 4.3	664.26 ± 4.3
6020 kPa, x2 = 0.3158	680.02 ± 4.4	–
6020 kPa, x2 = 0.7301	717.05 ± 4.6	–
6020 kPa, x2 = 0.8823	–	730.16 ± 4.7
7000 kPa, x2 = 0.7301	–	706.83 ± 4.5
7000 kPa, x2 = 0.8823	741.99 ± 4.8	731.28 ± 4.7
7010 kPa, x2 = 0.1631	673.46 ± 4.3	663.61 ± 4.2
7010 kPa, x2 = 0.2111	675.59 ± 4.3	665.47 ± 4.3
7010 kPa, x2 = 0.4411	689.51 ± 4.4	–
7010 kPa, x2 = 0.7301	718.15 ± 4.6	–
7020 kPa, x2 = 0.3158	681.12 ± 4.4	670.48 ± 4.3
7020 kPa, x2 = 0.4411	–	678.5 ± 4.3
8000 kPa, x2 = 0.2111	676.71 ± 4.3	–
8000 kPa, x2 = 0.3158	682.22 ± 4.4	–
8000 kPa, x2 = 0.8823	743 ± 4.8	–
8010 kPa, x2 = 0.1631	674.54 ± 4.3	664.82 ± 4.3
8010 kPa, x2 = 0.3158	–	671.68 ± 4.3
8010 kPa, x2 = 0.4411	690.61 ± 4.4	679.69 ± 4.4
8010 kPa, x2 = 0.7301	–	708 ± 4.5
8020 kPa, x2 = 0.2111	–	666.69 ± 4.3
8020 kPa, x2 = 0.7301	719.22 ± 4.6	–
8020 kPa, x2 = 0.8823	–	732.4 ± 4.7
9000 kPa, x2 = 0.1631	675.63 ± 4.3	666 ± 4.3
9000 kPa, x2 = 0.4411	691.72 ± 4.4	–
9000 kPa, x2 = 0.7301	720.31 ± 4.6	–
9010 kPa, x2 = 0.2111	677.8 ± 4.3	667.86 ± 4.3
9010 kPa, x2 = 0.3158	683.34 ± 4.4	672.89 ± 4.3
9010 kPa, x2 = 0.4411	–	680.87 ± 4.4
9010 kPa, x2 = 0.7301	–	709.2 ± 4.5
9010 kPa, x2 = 0.8823	744.04 ± 4.8	–
9020 kPa, x2 = 0.8823	–	733.54 ± 4.7
10000 kPa, x2 = 0.8823	–	734.63 ± 4.7
10010 kPa, x2 = 0.1631	–	667.15 ± 4.3
10010 kPa, x2 = 0.2111	678.85 ± 4.3	669.02 ± 4.3
10010 kPa, x2 = 0.3158	684.4 ± 4.4	–
10010 kPa, x2 = 0.4411	692.81 ± 4.4	–
10010 kPa, x2 = 0.8823	745.05 ± 4.8	–
10020 kPa, x2 = 0.1631	676.71 ± 4.3	–
10020 kPa, x2 = 0.7301	721.36 ± 4.6	–
11000 kPa, x2 = 0.4411	693.87 ± 4.5	–
11010 kPa, x2 = 0.2111	679.93 ± 4.4	–
11010 kPa, x2 = 0.3158	685.49 ± 4.4	–
11020 kPa, x2 = 0.1631	677.8 ± 4.3	–
11020 kPa, x2 = 0.7301	722.39 ± 4.6	–
11020 kPa, x2 = 0.8823	746.05 ± 4.8	–
12000 kPa, x2 = 0.3158	686.55 ± 4.4	–
12010 kPa, x2 = 0.2111	681 ± 4.4	–
12010 kPa, x2 = 0.7301	723.42 ± 4.6	–
12010 kPa, x2 = 0.8823	747.05 ± 4.8	–
12020 kPa, x2 = 0.1631	678.83 ± 4.3	–
12020 kPa, x2 = 0.4411	694.93 ± 4.5	–
13000 kPa, x2 = 0.2111	682.04 ± 4.4	–
13010 kPa, x2 = 0.3158	687.6 ± 4.4	–
13010 kPa, x2 = 0.4411	695.99 ± 4.5	–
13010 kPa, x2 = 0.8823	748.05 ± 4.8	–
13020 kPa, x2 = 0.1631	679.88 ± 4.4	–
13020 kPa, x2 = 0.7301	724.48 ± 4.6	–
14000 kPa, x2 = 0.2111	683.07 ± 4.4	–
14000 kPa, x2 = 0.7301	725.49 ± 4.7	–
14000 kPa, x2 = 0.8823	749.02 ± 4.8	–
14010 kPa, x2 = 0.1631	680.88 ± 4.4	–
14010 kPa, x2 = 0.4411	697.01 ± 4.5	–
14020 kPa, x2 = 0.3158	688.64 ± 4.4	–
15000 kPa, x2 = 0.2111	684.09 ± 4.4	–
15000 kPa, x2 = 0.8823	749.96 ± 4.8	–
15010 kPa, x2 = 0.1631	681.89 ± 4.4	–
15010 kPa, x2 = 0.3158	689.64 ± 4.4	–
15010 kPa, x2 = 0.7301	726.47 ± 4.7	–
15020 kPa, x2 = 0.4411	698 ± 4.5	–
16000 kPa, x2 = 0.2111	685.06 ± 4.4	–
16000 kPa, x2 = 0.3158	690.66 ± 4.4	–
16000 kPa, x2 = 0.4411	699.01 ± 4.5	–
16010 kPa, x2 = 0.1631	682.9 ± 4.4	–
16010 kPa, x2 = 0.7301	727.46 ± 4.7	–
16010 kPa, x2 = 0.8823	750.92 ± 4.8	–
17000 kPa, x2 = 0.8823	751.86 ± 4.8	–
17010 kPa, x2 = 0.1631	683.85 ± 4.4	–
17010 kPa, x2 = 0.2111	686.08 ± 4.4	–
17010 kPa, x2 = 0.3158	691.65 ± 4.4	–
17010 kPa, x2 = 0.4411	699.99 ± 4.5	–
17010 kPa, x2 = 0.7301	728.43 ± 4.7	–
18000 kPa, x2 = 0.1631	684.83 ± 4.4	–
18000 kPa, x2 = 0.7301	729.35 ± 4.7	–
18010 kPa, x2 = 0.3158	692.6 ± 4.5	–
18010 kPa, x2 = 0.4411	700.97 ± 4.5	–
18020 kPa, x2 = 0.2111	687.03 ± 4.4	–
18020 kPa, x2 = 0.8823	752.76 ± 4.8	–
19000 kPa, x2 = 0.1631	685.78 ± 4.4	–
19010 kPa, x2 = 0.3158	693.56 ± 4.5	–
19010 kPa, x2 = 0.8823	753.68 ± 4.8	–
19020 kPa, x2 = 0.2111	687.96 ± 4.4	–
19020 kPa, x2 = 0.4411	701.92 ± 4.5	–
19020 kPa, x2 = 0.7301	730.28 ± 4.7	–
20000 kPa, x2 = 0.7301	731.24 ± 4.7	–
20010 kPa, x2 = 0.1631	686.67 ± 4.4	–
20010 kPa, x2 = 0.2111	688.89 ± 4.4	–
20010 kPa, x2 = 0.3158	694.48 ± 4.5	–
20010 kPa, x2 = 0.4411	702.85 ± 4.5	–
20020 kPa, x2 = 0.8823	754.54 ± 4.8	–

Source: the NIST ThermoML archive (doi:10.1021/acs.jced.8b00554)
